Source: PubChem BioAssay (NCI)
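A five-concentration, 48-hour dose response in 96-well plates underlies each endpoint, interpolated linearly between surrounding concentrations. GI50 = concentration required for 50% inhibition of growth. TGI denotes the concentration required for complete inhibition of growth.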

Legend:
Test in all cases: NCI anticancer screen, dose series, 48 h
IGROV1 ovarian = tested on: IGROV1 ovarian
BT-549 breast = tested on: BT-549 breast
UO-31 renal = tested on: UO-31 renal
SK-MEL-28 melanoma = tested on: SK-MEL-28 melanoma
DU-145 prostate = tested on: DU-145 prostate
CAKI-1 renal = tested on: CAKI-1 renal
A498 renal = tested on: A498 renal
HCT-15 colon = tested on: HCT-15 colon
SR leukemia = tested on: SR leukemia
SN12C renal = tested on: SN12C renal
LOX IMVI melanoma = tested on: LOX IMVI melanoma
U251 CNS = tested on: U251 CNS
NCI-H460 lung = tested on: NCI-H460 lung
786-0 renal = tested on: 786-0 renal
UACC-62 melanoma = tested on: UACC-62 melanoma
HS 578T breast = tested on: HS 578T breast
SF-295 CNS = tested on: SF-295 CNS
EKVX NSCLC = tested on: EKVX NSCLC
SF-268 CNS = tested on: SF-268 CNS
SNB-75 CNS = tested on: SNB-75 CNS
PC-3 prostate = tested on: PC-3 prostate
K-562 leukemia = tested on: K-562 leukemia
M14 melanoma = tested on: M14 melanoma
KM12 colon = tested on: KM12 colon
NCI-H226 lung = tested on: NCI-H226 lung
MALME-3M melanoma = tested on: MALME-3M melanoma
MDA-MB-435 = tested on: MDA-MB-435
MCF7 breast = tested on: MCF7 breast
TK-10 renal = tested on: TK-10 renal
HL-60(TB) leukemia = tested on: HL-60(TB) leukemia
SK-MEL-5 melanoma = tested on: SK-MEL-5 melanoma
CCRF-CEM leukemia = tested on: CCRF-CEM leukemia
RPMI-8226 leukemia = tested on: RPMI-8226 leukemia
SK-OV-3 ovarian = tested on: SK-OV-3 ovarian
ACHN renal = tested on: ACHN renal
HOP-92 NSCLC = tested on: HOP-92 NSCLC
SF-539 CNS = tested on: SF-539 CNS
COLO 205 colon = tested on: COLO 205 colon
HCT-116 colon = tested on: HCT-116 colon
NCI-H522 lung = tested on: NCI-H522 lung
MOLT-4 leukemia = tested on: MOLT-4 leukemia
SK-MEL-2 melanoma = tested on: SK-MEL-2 melanoma
UACC-257 melanoma = tested on: UACC-257 melanoma
SNB-19 CNS = tested on: SNB-19 CNS
T-47D breast = tested on: T-47D breast
NCI/ADR-RES ovarian = tested on: NCI/ADR-RES ovarian
A549 NSCLC = tested on: A549 NSCLC
NCI-H23 lung = tested on: NCI-H23 lung

CCOC(=O)c1sc(-c2ccc(OS(=O)(=O)c3cccs3)c(C=O)c2)nc1C
GI50 (IGROV1 ovarian): 1.29 µM
TGI (IGROV1 ovarian): 3.41 µM
GI50 (BT-549 breast): 1.68 µM
TGI (BT-549 breast): 3.19 µM
GI50 (UO-31 renal): 1.73 µM
TGI (UO-31 renal): 5.13 µM
GI50 (SK-MEL-28 melanoma): 2.01 µM
TGI (SK-MEL-28 melanoma): 4.07 µM
GI50 (DU-145 prostate): 2.43 µM
TGI (DU-145 prostate): 6.78 µM
GI50 (CAKI-1 renal): 1.31 µM
TGI (CAKI-1 renal): 3.94 µM
GI50 (A498 renal): 1.58 µM
TGI (A498 renal): 3.18 µM
GI50 (HCT-15 colon): 0.561 µM
TGI (HCT-15 colon): 2.13 µM
GI50 (SR leukemia): 1.82 µM
TGI (SR leukemia): > 100 µM
GI50 (SN12C renal): 1.98 µM
TGI (SN12C renal): 5.75 µM
GI50 (LOX IMVI melanoma): 1.77 µM
TGI (LOX IMVI melanoma): 3.33 µM
GI50 (U251 CNS): 1.19 µM
TGI (U251 CNS): 2.83 µM
GI50 (NCI-H460 lung): 2.22 µM
TGI (NCI-H460 lung): 4.96 µM
GI50 (786-0 renal): 1.86 µM
TGI (786-0 renal): 4.54 µM
GI50 (UACC-62 melanoma): 1.43 µM
TGI (UACC-62 melanoma): 2.92 µM
GI50 (HS 578T breast): 2.1 µM
TGI (HS 578T breast): 5.3 µM
GI50 (SF-295 CNS): 1.72 µM
TGI (SF-295 CNS): 3.36 µM
GI50 (EKVX NSCLC): 1.88 µM
TGI (EKVX NSCLC): 5.4 µM
GI50 (SF-268 CNS): 1.91 µM
TGI (SF-268 CNS): 4.42 µM
GI50 (SNB-75 CNS): 1.57 µM
TGI (SNB-75 CNS): 4.07 µM
GI50 (PC-3 prostate): 1.26 µM
TGI (PC-3 prostate): 4.81 µM
GI50 (K-562 leukemia): 0.574 µM
TGI (K-562 leukemia): > 100 µM
GI50 (M14 melanoma): 1.9 µM
TGI (M14 melanoma): 3.86 µM
GI50 (KM12 colon): 1.47 µM
TGI (KM12 colon): 3.24 µM
GI50 (NCI-H226 lung): 1.88 µM
TGI (NCI-H226 lung): 4.93 µM
GI50 (MALME-3M melanoma): 2.22 µM
TGI (MALME-3M melanoma): 5.69 µM
GI50 (MDA-MB-435): 1.59 µM
TGI (MDA-MB-435): 3.05 µM
GI50 (MCF7 breast): 1.88 µM
TGI (MCF7 breast): 4.51 µM
GI50 (TK-10 renal): 1.27 µM
TGI (TK-10 renal): 4.33 µM
GI50 (HL-60(TB) leukemia): 1.89 µM
TGI (HL-60(TB) leukemia): 4.93 µM
GI50 (SK-MEL-5 melanoma): 1.56 µM
TGI (SK-MEL-5 melanoma): 3 µM
GI50 (CCRF-CEM leukemia): 2.16 µM
TGI (CCRF-CEM leukemia): 5.38 µM
GI50 (RPMI-8226 leukemia): 1.01 µM
TGI (RPMI-8226 leukemia): 4.72 µM
GI50 (SK-OV-3 ovarian): 3.25 µM
TGI (SK-OV-3 ovarian): 7.79 µM
GI50 (ACHN renal): 2.06 µM
TGI (ACHN renal): 5.88 µM
GI50 (HOP-92 NSCLC): 1.36 µM
TGI (HOP-92 NSCLC): 4.24 µM
GI50 (SF-539 CNS): 1.82 µM
TGI (SF-539 CNS): 3.42 µM
GI50 (COLO 205 colon): 2.01 µM
TGI (COLO 205 colon): 3.9 µM
GI50 (HCT-116 colon): 0.732 µM
TGI (HCT-116 colon): 2.15 µM
GI50 (NCI-H522 lung): 1.51 µM
TGI (NCI-H522 lung): 3.43 µM
GI50 (MOLT-4 leukemia): 1.47 µM
TGI (MOLT-4 leukemia): 4.02 µM
GI50 (SK-MEL-2 melanoma): 2.06 µM
TGI (SK-MEL-2 melanoma): 4.78 µM
GI50 (UACC-257 melanoma): 2.51 µM
TGI (UACC-257 melanoma): 6.35 µM
GI50 (SNB-19 CNS): 1.37 µM
TGI (SNB-19 CNS): 2.95 µM
GI50 (T-47D breast): 1.21 µM
TGI (T-47D breast): 5.02 µM
GI50 (NCI/ADR-RES ovarian): 1.8 µM
TGI (NCI/ADR-RES ovarian): 6.17 µM
GI50 (A549 NSCLC): 2.3 µM
TGI (A549 NSCLC): 6.72 µM
GI50 (NCI-H23 lung): 1.76 µM
TGI (NCI-H23 lung): 4.54 µM
